Measured values: US20250276993A1, “PSEUDO-DISACCHARIDE COMPOUNDS” (UNIVERSITEIT LEIDEN, priority 2022, published 2025)

Key:
HPSE [1] = target: T1, HPSE (Homo sapiens, UniProt Q9Y251); assay: cABPP Assay 1, recombinant HPSE; type: biochemical
T1 sequence (Q9Y251 36-109 limits assumed): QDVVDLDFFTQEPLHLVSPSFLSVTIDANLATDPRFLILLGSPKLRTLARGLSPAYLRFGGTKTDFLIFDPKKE
T1 sequence (Q9Y251 158-543 limits assumed): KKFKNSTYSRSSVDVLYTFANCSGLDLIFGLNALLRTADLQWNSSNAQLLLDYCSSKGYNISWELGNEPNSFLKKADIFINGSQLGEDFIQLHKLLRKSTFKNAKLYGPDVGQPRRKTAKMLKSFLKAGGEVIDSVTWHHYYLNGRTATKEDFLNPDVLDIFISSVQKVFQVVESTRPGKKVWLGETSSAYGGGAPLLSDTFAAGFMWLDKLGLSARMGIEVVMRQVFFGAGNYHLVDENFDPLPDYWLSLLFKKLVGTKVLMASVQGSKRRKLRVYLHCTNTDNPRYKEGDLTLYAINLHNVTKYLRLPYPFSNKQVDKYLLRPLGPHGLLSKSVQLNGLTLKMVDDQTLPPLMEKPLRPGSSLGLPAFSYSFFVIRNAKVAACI

HPSE [2] = target: T1, HPSE; assay: HSPG digest assay, recombinant HPSE; type: biochemical
Method: ECM coated 35 mm culture dishes containing ^35S labelled HS were prepared as previously described (Vlodavsky et al., Curr. Protoc. Cell. Biol., Chapter 10, Unit 10, 14). Briefly, bovine corneal endothelial cells were plated at an initial density of 2×10^5 cells/ml, with 4% dextran T-40 (Sigma) included in the growth medium. Na2^35SO4 (25 μCi/ml) was added to the incubation medium on days 2 and 5 after seeding. On day 12, subendothelial ECM is exposed by dissolving the cells with PBS containing 0.5% Triton X-100 and 20 mM NH4OH, followed by four washes with PBS. For HS-degradation assays, ECM coated dishes were incubated with 200 ng recombinant HPSE in 1 mL reaction mixture (10 mM buffer Phosphate-Citrate pH 6.0, 50 mM NaCl, 1 mM DTT, 1 mM CaCl2) containing HPSE inhibitors or DMSO control. Plates were incubated at 37° C. for 5 h, then assay medium collected and applied to a 0.9×30 cm Sepharose 6B size exclusion column. The Sepharose 6B column was eluted with PBS, and ^35S radioactivity of 0.2 mL fractions quantitated using a liquid scintillation analyzer (Packard BioScience). Digest assays with U87 cell lysates were carried out in a similar fashion, except plates were incubated for 18 h with cell extracts prepared from 1×10^6 U87 glioma cells lysed by 3× freeze/thaw cycles.
The compounds of the invention were assessed against HPSE degradation of bona fide HSPGs in a physiologically relevant ECM-like environment. Cultured bovine corneal […] cells secrete a subendothelial basement membrane material rich in HSPGs, and their growth in the presence of ^35SO4^2− results in ^35S radiolabeled HSPGs (Vlodavsky et al., Curr Protoc Cell Biol, Chapter 10, Unit 10, 4, 2001). H^35S chains attached to these HSPGs are detectable after solubilization by HPSE, with enzyme inhibition leading to a corresponding reduction of signal.

HPSE [3] = target: T1, HPSE; assay: Fondaparinux cleavage assay; type: biochemical
human platelet HPSE = target: T2, human platelet HPSE (Homo sapiens, UniProt Q9Y251); assay: cABPP with fluorescence quantitation, platelet lysates, HPSE; type: biochemical; settings: read-out: IC50 platelet HPSE inhibition
T2 construct: endogenous in cells; host or cells: human platelet lysates
T2 sequence (Q9Y251 158-543 limits assumed): T1 sequence (Q9Y251 158-543 limits assumed)
T2 sequence (Q9Y251 36-109 limits assumed): T1 sequence (Q9Y251 36-109 limits assumed)
Method: ABP labelling reactions were carried out in Mcllvaine buffer (pH 5.5), 300 mM NaCl. For recombinant proteins 200 fmol of EcGH2, BpHep, AcGH79, HPSE or proHPSE was used (20 nM in 10 μl final reaction volume). For labeling cell lysates, 4-20 μg total protein was used. Labeling reactions were initiated by the addition of ABP compounds 7, 8 or 9 to a final concentration of 100 nM (unless otherwise specified), before incubation for 30 min at 37° C. with shaking. Following labeling, samples were denatured by boiling with Laemmli buffer for 5 min and resolved by SDS-PAGE. Gels were scanned using Typhoon-5 laser scanner platform (Cytiva), using the λEX 635 nm laser and 670BP30 emission filter. For competitive ABPP (cABPP) experiments, protein mixtures were preincubated with inhibitor (or buffer only control) for 1 h at 37° C. with shaking, before the addition of 7 to a final concentration of 100 nM, and subsequent incubation for 30 min at 37° C. with shaking. SDS-PAGE and analysis steps were carried out as above. For quantitative measurements, fluorescently labeled band intensities were calculated using Imagequant (Cytiva), and normalized to the corresponding band in the inhibitor free control lane. cABPP plots were prepared and analyzed using SigmaPlot 14.0 (Systat).
Further cABPP studies were undertaken using platelet lysates to provide a more physiologically realistic environment. […]

U87 glioblastoma cells = assay: Matrigel invasion assay; type: cell-based, human; settings: 20 μM inhibitor, 4 h
Method: The Matrigel invasion assay was used to assess the effects of the compounds of the invention on cancer cell aggression. This is an in cellulo model of cell invasion through a HSPG rich basement membrane. The ability of cells to migrate through transwell inserts coated with Matrigel (an ECM secretion from Engelbreth-Holm-Swarm mouse sarcoma cells) correlates well with their in vivo invasive potential (Hall et al., Methods Mol Biol, 1070, 1-11 (2014)).
1×10^5 U87 cells in 200 μL DMEM media (without serum) were seeded onto the top chamber of a Matrigel-coated Boyden transwell filter, alongside 20 μM HPSE inhibitor (or PBS control). Cells in the upper chamber were separated by Matrigel from a lower chamber containing 600 μL DMEM, supplemented with 10% FBS. Plates were incubated at 37° C. for 4 h, before fixing cells in 4% (v/v) paraformaldehyde, and staining with 0.5% (w/v) crystal violet. Matrigel and non-migrating cells in the upper side of the Boyden filter were removed by swabbing, then invading cells on the bottom side of the transwell filter imaged for analysis. 10 randomly selected microscopic fields were recorded, and cell invasion calculated using ImageJ, by quantitating the percentage of the field stained by crystal violet. Graphs were plotted using RStudio.
The Matrigel invasion assay was used to assess the effects of the compounds of the invention on cancer cell aggression. […]

HPSE [4] = target: T1, HPSE; assay: X-ray crystallography, ligand soaking of HPSE crystals; settings: crystal soaking
Text: Xray diffraction data were collected at 100 K at beamlines i03 (HPSE-2, HPSE-3, HPSE-4, EcGUSB-1, BpHep-3), i04 (AcGH79-2, BpHep-2) and i04-1 (Apo-AcGH79, AcGH79-1, AcGH79-3) of the Diamond Light Source UK. Reflections were autoprocessed using the XIA2 pipeline. Complexes were solved by directly refining against their unliganded structures where isomorphous, or else solved by molecular replacement with PHASER (search model PDB accessions: 5E98 (HPSE), 3VNY (AcGH79), 3K46 (EcGUSB), 5BWI (BpHep)). […] Ligand coordinates were built using jLigand. Diagrams were generated using PyMOL.
HPSE—Well diffracting crystals of HPSE were obtained by the sitting-drop vapor-diffusion method at 20° C. using a well solution containing 0.1 M MES pH 5.5, 0.1 M MgCl2, 17% (w/v) PEG 3350, and a protein to well solution ratio of 200 nl:500 nl. Crystals typically appeared after 1 week. Inhibitor ligand complexes were obtained by transferring HPSE crystals to drops of well solution supplemented with 25% (v/v) ethylene glycol and 1-5 mM inhibitor. Crystals were incubated with ligand for ˜2-4 h, then directly harvested and flash-cooled in LN2 for data collection.
To better understand the molecular basis of interaction between our inhibitors and their targets, we turned to X-ray crystallography, using ligand soaking to derivatize enzymes in crystallo.

CC(=O)N[C@H]1[C@@H](O[C@H]2[C@H](O)[C@@H](O)[C@@H]3O[C@@H]3[C@@H]2C(=O)O)O[C@H](COS(=O)(=O)O)[C@@H](O)[C@@H]1O [Compound 3, 4-O-(2-N-acetyl-2-deoxy-6-O-sulfo-D-glucopyranosyl)-glucurono-cyclophellitol]
HPSE inhibition (abrogation of labelling by ABP 7) (HPSE [1]; 1 h preincubation at 37° C., pH 5.5, 100 nM ABP 7): inhibited HPSE at nanomolar concentrations
potency against HPSE relative to other compounds (HPSE [1]; cABPP Assay 1): greater potency against HPSE than 2 and 4
inhibition of HPSE degradation of 35S-labelled HSPGs (HPSE [2]; 200 ng recombinant HPSE, pH 6.0, 5 h): robust, dose dependent inhibition
concentration giving comparable levels of inhibition (HPSE [2]; HSPG digest, recombinant HPSE): 1 µM
fold more potent than reference inhibitors #98 (10) and OGT2115 (11) (HPSE [3]): approximately 2 fold
IC50 (human platelet HPSE): ~0.056 µM
Matrigel invasion (U87 glioblastoma cells): significantly reduced Matrigel invasion
binding mode in HPSE active site cleft (HPSE [4]): covalent linkages between their pseudo-anomeric carbons and the enzyme nucleophile Glu343
